“Also recorded” adds a separate entry of the source.
Key:
5-HT1B receptor = 5-HT1B receptor (Homo sapiens, UniProt P28222); experiment: Serotonin-receptor binding assay; conditions: 10 μM and 0.1 μM
Description: (§1) The methods employed in this study have been adapted from the scientific literature to maximize reliability and reproducibility. The experiments include contacting a serotonin type 1A, 1B, 1D, 2A, 2B, 2C, 3, 4, 5A, 6, and 7 receptor with a test compound and comparing the level of binding of serotonin or a control compound (e.g., fluphenazine) with that serotonin type 1A, 1B, 1D, 2A, 2B, 2C, 3, 4, 5A, 6, and 7 receptor with the level of serotonin binding or control compound binding with an otherwise identical serotonin type 1A, 1B, 1D, 2A, 2B, 2C, 3, 4, 5A, 6, and 7 receptor not contacted with the test compound. […] The skilled artisan would also appreciate, in view of the disclosure provided herein, that standard binding assays known in the art, or those to be developed in the future, can be used to assess the binding of serotonin or a control compound with a serotonin type 1A, 1B, 1D, 2A, 2B, 2C, 3, 4, 5A, 6, and 7 receptor in the presence or absence of the test compound to identify a useful compound.
(§2) ICI-735 and fluphenazine were tested for selective binding to 1A, 1B, 1D, 2A, 2B, 2C, 3, 4, 5A, 6, and 7 receptors at concentrations of 10 μM and 0.1 μM.

5-HT7 receptor = 5-HT7 receptor (Homo sapiens, UniProt P34969); experiment: Serotonin-receptor binding assay; conditions: 10 μM and 0.1 μM
5-HT7 receptor, sequence (P34969 whole entry): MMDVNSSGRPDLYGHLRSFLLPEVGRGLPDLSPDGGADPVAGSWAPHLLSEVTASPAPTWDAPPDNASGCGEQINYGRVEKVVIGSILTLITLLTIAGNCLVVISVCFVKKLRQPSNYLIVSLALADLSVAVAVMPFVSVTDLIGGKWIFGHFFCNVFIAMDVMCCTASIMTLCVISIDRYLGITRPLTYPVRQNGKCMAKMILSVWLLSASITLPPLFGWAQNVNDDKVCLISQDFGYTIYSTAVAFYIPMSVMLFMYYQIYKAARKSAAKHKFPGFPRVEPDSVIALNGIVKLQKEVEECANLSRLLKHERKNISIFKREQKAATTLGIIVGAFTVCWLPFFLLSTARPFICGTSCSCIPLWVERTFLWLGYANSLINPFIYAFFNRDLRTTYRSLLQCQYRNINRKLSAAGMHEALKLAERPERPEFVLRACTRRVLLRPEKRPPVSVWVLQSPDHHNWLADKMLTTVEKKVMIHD
Description: as §1, §2

5-HT1B receptor, sequence (P28222 whole entry): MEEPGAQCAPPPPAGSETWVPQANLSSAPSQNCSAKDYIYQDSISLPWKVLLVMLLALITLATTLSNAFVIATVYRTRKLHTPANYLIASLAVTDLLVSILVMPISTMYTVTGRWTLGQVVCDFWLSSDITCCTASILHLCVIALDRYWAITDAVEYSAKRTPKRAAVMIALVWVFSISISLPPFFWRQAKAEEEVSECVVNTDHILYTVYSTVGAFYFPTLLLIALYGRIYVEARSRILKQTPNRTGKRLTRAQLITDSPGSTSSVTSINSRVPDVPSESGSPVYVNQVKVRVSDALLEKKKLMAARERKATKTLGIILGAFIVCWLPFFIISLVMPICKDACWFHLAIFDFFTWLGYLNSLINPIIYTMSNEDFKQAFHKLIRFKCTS

NCC(=O)NCCN1CCN(CCCN2c3ccccc3Sc3ccc(C(F)(F)F)cc32)CC1 [ICI-735]
binding to 5-HT1B receptor as compared to fluphenazine (5-HT1B receptor): significant increase activity; also recorded: increased binding
binding to 5-HT7 receptor as compared to fluphenazine (5-HT7 receptor): significant increase activity; also recorded: increased binding
